Source: patent US8883782B2, “Spiro-tetracyclic ring compounds as beta-secretase modulators and methods of use” (Amgen Inc., priority 2010, dated 2014)
Read-outs that look alike come from different tables or passages of the source.

Assays:
[1] = test system: Aβ40 in conditioned medium of cells stably expressing Amyloid Precursor Protein (APP); assay: In vitro BACE cell-based assay (Aβ40 in conditioned medium, sandwich ELISA); details: Homo sapiens
How it was run: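 Secreted Aβ40 is captured with pAb40 and detected with biotinylated 6E10, read by europium time-resolved fluorescence. IC50 comes from percent inhibition versus concentration.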

[2] = target: Beta Secretase enzyme (BACE) (Homo sapiens, UniProt P56817); assay: In vitro enzymatic BACE FRET (fluorescence resonance energy transfer) assay; assay type: biochemical
Beta Secretase enzyme (BACE), sequence (P56817 46-501, species assumed): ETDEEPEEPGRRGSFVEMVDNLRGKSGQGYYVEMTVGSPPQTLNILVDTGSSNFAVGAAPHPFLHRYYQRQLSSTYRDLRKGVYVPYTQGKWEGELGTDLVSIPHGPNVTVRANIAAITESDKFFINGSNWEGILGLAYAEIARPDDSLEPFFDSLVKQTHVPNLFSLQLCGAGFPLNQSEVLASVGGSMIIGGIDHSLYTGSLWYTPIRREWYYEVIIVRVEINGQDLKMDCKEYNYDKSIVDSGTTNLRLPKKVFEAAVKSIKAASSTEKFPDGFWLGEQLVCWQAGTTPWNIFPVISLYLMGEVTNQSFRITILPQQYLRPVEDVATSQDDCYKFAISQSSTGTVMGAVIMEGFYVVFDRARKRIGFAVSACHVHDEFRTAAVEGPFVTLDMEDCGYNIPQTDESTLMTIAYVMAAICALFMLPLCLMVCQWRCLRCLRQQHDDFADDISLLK
How it was run: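 Cleavage of a 50 nM fluorophore/quencher peptide FRET substrate by BACE for 1 h in 0.05 M acetate pH 4.2, 10% DMSO, 100 uM genapol. Reaction stopped with Tris to neutral pH before fluorescence reading.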

[3] = HEK293, average IC50, read-out: HEK cell assay
[4] = average IC50, enzyme assay, read-out: BACE 1 FRET assay

| IC50 [1, 3] [µM] | IC50 [2, 4] [µM] | SMILES | IC50 ([1]; HEK293, average IC50, HEK cell assay, read-out: HEK cell assay) [µM] | IC50 ([1]; HEK293, read-out: HEK cell assay (uM), average IC50, HEK cell assay) [µM] | IC50 ([2]; BACE 1 FRET assay (uM)) [µM] |
| --- | --- | --- | --- | --- | --- |
| 4.3 | 0.101 | COc1cc(F)c2c(c1)[C@]1(COC(N)=N1)c1cc(-c3cncc(C#CC(C)(C)OC)c3)ccc1O2 [Example 823, (4S)-4′-fluoro-2′-methoxy-7′-(5-(3-methoxy-3-methyl-1-butyn-1-yl)-3-pyridinyl)spiro[1,3-oxazole-4,9′-xanthen]-2-amine] | – | – | – |
| 0.02 | 0.0002 | CC#Cc1cncc(-c2ccc3c(c2)[C@@]2(COC(N)=N2)c2cc(OC)cc(F)c2O3)c1 [Example 824, (4S)-4′-fluoro-2′-methoxy-7′-(5-(1-propyn-1-yl)-3-pyridinyl)spiro[1,3-oxazole-4,9′-xanthen]-2-amine] | – | – | – |
| 0.006 | 0.0003 | NC1=N[C@@]2(CO1)c1cc(-c3cncc(C#CCO)c3)ccc1Oc1cnc(-c3ccnc(F)c3)cc12 [Example 825, 3-(5-((5S)-2′-amino-3-(2-fluoro-4-pyridinyl)spiro[chromeno[2,3-c]pyridine-5,4′-[1,3]oxazol]-7-yl)-3-pyridinyl)-2-propyn-1-ol] | – | – | – |
| 0.002 | 0.0005 | NC1=N[C@@]2(CO1)c1cc(-c3cncc(C#CCO)c3)ccc1Oc1cnc(C3=CCCOC3)cc12 [Example 827, 3-(5-((5S)-2′-amino-3-(5,6-dihydro-2H-pyran-3-yl)spiro[chromeno[2,3-c]pyridine-5,4′-[1,3]oxazol]-7-yl)-3-pyridinyl)-2-propyn-1-ol] | – | – | – |
| ≥ 10 | 0.134 | COc1nc(Cl)cc2c1Oc1ccc(-c3cccnc3F)cc1[C@@]21COC(N)=N1 [Example 828, (5S)-3-chloro-7-(2-fluoro-3-pyridinyl)-1-methoxyspiro[chromeno[2,3-c]pyridine-5,4′-[1,3]oxazol]-2′-amine] | – | – | – |
| 4.11 | 0.0302 | CC#Cc1cncc(-c2ccc3c(c2)[C@@]2(COC(N)=N2)c2cc(Cl)nc(OC)c2O3)c1 [Example 829, (5S)-3-chloro-1-methoxy-7-(5-(1-propyn-1-yl)-3-pyridinyl)spiro[chromeno[2,3-c]pyridine-5,4′-[1,3]oxazol]-2′-amine] | – | – | – |
| ≥ 10 | 0.469 | COc1nc(Cl)cc2c1Oc1ccc(-c3cccnc3)cc1[C@@]21COC(N)=N1 [Example 830, (5S)-3-chloro-1-methoxy-7-(3-pyridinyl)spiro[chromeno[2,3-c]pyridine-5,4′-[1,3]oxazol]-2′-amine] | – | – | – |
| 0.07 | 0.0011 | COc1nc(-c2ccnc(F)c2)cc2c1Oc1ccc(-c3cccnc3F)cc1[C@@]21COC(N)=N1 [Example 831, (5S)-7-(2-fluoro-3-pyridinyl)-3-(2-fluoro-4-pyridinyl)-1-methoxyspiro[chromeno[2,3-c]pyridine-5,4′-[1,3]oxazol]-2′-amine] | – | – | – |
| 0.021 | 0.0007 | COc1nc(C2=CCCOC2)cc2c1Oc1ccc(-c3cccnc3F)cc1[C@@]21COC(N)=N1 [Example 833, (5S)-3-(5,6-dihydro-2H-pyran-3-yl)-7-(2-fluoro-3-pyridinyl)-1-methoxyspiro[chromeno[2,3-c]pyridine-5,4′-[1,3]oxazol]-2′-amine] | – | – | – |
| 0.07 | 0.0035 | COc1nc(-c2ccncc2)cc2c1Oc1ccc(-c3cccnc3F)cc1[C@@]21COC(N)=N1 [Example 834, (5S)-7-(2-fluoro-3-pyridinyl)-1-methoxy-3-(4-pyridinyl)spiro[chromeno[2,3-c]pyridine-5,4′-[1,3]oxazol]-2′-amine] | – | – | – |

The next lines start with the compound.

| SMILES | IC50 [1, 3] [µM] | IC50 [2, 4] [µM] | IC50 ([1]; HEK293, average IC50, HEK cell assay, read-out: HEK cell assay) [µM] | IC50 ([1]; HEK293, read-out: HEK cell assay (uM), average IC50, HEK cell assay) [µM] | IC50 ([2]; BACE 1 FRET assay (uM)) [µM] |
| --- | --- | --- | --- | --- | --- |
| NC1=N[C@@]2(CO1)c1cc(-c3cccnc3F)ccc1Oc1c(F)cc(C3=CC(=O)OC3)cc12 [Example 801, 4-((4S)-2-amino-4′-fluoro-7′-(2-fluoro-3-pyridinyl)spiro[1,3-oxazole-4,9′-xanthen]-2′-yl)-2(5H)-furanone] | 0.17 | 0.0022 | – | – | – |
| CC1(C)CC(c2cc(F)c3c(c2)[C@]2(COC(N)=N2)c2cc(-c4cccnc4F)ccc2O3)=CC(=O)O1 [Example 804, 4-((4S)-2-amino-4′-fluoro-7′-(2-fluoro-3-pyridinyl)spiro[1,3-oxazole-4,9′-xanthen]-2′-yl)-6,6-dimethyl-5,6-dihydro-2H-pyran-2-one] | 0.033 | 0.0008 | – | – | – |
| NC1=N[C@@]2(CO1)c1cc(-c3cccnc3F)ccc1Oc1c(F)cc(C3=C(Cl)COCC3)cc12 [Example 805, (4S)-2′-(5-chloro-3,6-dihydro-2H-pyran-4-yl)-4′-fluoro-7′-(2-fluoro-3-pyridinyl)spiro[1,3-oxazole-4,9′-xanthen]-2-amine] | 0.003 | 0.0002 | – | – | – |
| NC1=N[C@@]2(CO1)c1cc(-c3cccnc3F)ccc1Oc1c2cc(-c2ccccc2)nc1F [Example 806, (S)-1-fluoro-7-(2-fluoropyridin-3-yl)-3-phenyl-5′H-spiro[chromeno[2,3-c]pyridine-5,4′-oxazol]-2′-amine] | – | 0.0015 | 0.005 | – | – |
| Cc1ncncc1-c1ccc2c(c1)[C@@]1(COC(N)=N1)c1cc(C3=CCOCC3)ncc1O2 [Example 808, (5S)-3-(3,6-dihydro-2H-pyran-4-yl)-7-(4-methyl-5-pyrimidinyl)spiro[chromeno[2,3-c]pyridine-5,4′-[1,3]oxazol]-2′-amine] | 0.093 | 0.003 | – | – | – |
| Cc1ncncc1-c1ccc2c(c1)[C@@]1(COC(N)=N1)c1cc(-c3ccnc(F)c3)ncc1O2 [Example 809, (5S)-3-(2-fluoro-4-pyridinyl)-7-(4-methyl-5-pyrimidinyl)spiro[chromeno[2,3-c]pyridine-5,4′-[1,3]oxazol]-2′-amine] | 0.518 | 0.0083 | – | – | – |
| CC1(C#Cc2cncc(-c3ccc4c(c3)[C@@]3(COC(N)=N3)c3cc(Cl)ncc3O4)c2)COC1 [Example 810, (5S)-3-chloro-7-(5-((3-methyl-3-oxetanyl)ethynyl)-3-pyridinyl)spiro[chromeno[2,3-c]pyridine-5,4′-[1,3]oxazol]-2′-amine] | ≥ 10 | 0.604 | – | – | – |
| CC1(C#Cc2cncc(-c3ccc4c(c3)[C@@]3(COC(N)=N3)c3cc(-c5ccnc(F)c5)ncc3O4)c2)COC1 [Example 812, (5S)-3-(2-fluoro-4-pyridinyl)-7-(5-((3-methyl-3-oxetanyl)ethynyl)-3-pyridinyl)spiro[chromeno[2,3-c]pyridine-5,4′-[1,3]oxazol]-2′-amine] | 0.46 | 0.0055 | – | – | – |
| CC1(C#Cc2cncc(-c3ccc4c(c3)[C@@]3(COC(N)=N3)c3cc(C5=CCCOC5)ncc3O4)c2)COC1 [Example 813, (5S)-3-(5,6-dihydro-2H-pyran-3-yl)-7-(5-((3-methyl-3-oxetanyl)ethynyl)-3-pyridinyl)spiro[chromeno[2,3-c]pyridine-5,4′-[1,3]oxazol]-2′-amine] | 0.053 | 0.0025 | – | – | – |
| NC1=N[C@@]2(CO1)c1cc(-c3cncc(C#CC4CC4)c3)ccc1Oc1cnc(-c3ccnc(F)c3)cc12 [Example 815, (5S)-7-(5-(cyclopropylethynyl)-3-pyridinyl)-3-(2-fluoro-4-pyridinyl)spiro[chromeno[2,3-c]pyridine-5,4′-[1,3]oxazol]-2′-amine] | 0.699 | 0.0019 | – | – | – |
| CC(C)(O)C#Cc1cncc(-c2ccc3c(c2)[C@@]2(COC(N)=N2)c2cc(-c4ccnc(F)c4)ncc2O3)c1 [Example 817, 4-(5-((5S)-2′-amino-3-(2-fluoro-4-pyridinyl)spiro[chromeno[2,3-c]pyridine-5,4′-[1,3]oxazol]-7-yl)-3-pyridinyl)-2-methyl-3-butyn-2-ol] | 1.48 | 0.0135 | – | – | – |
| CC(C)(O)C#Cc1cncc(-c2ccc3c(c2)[C@@]2(COC(N)=N2)c2cc(C4=CCOCC4)ncc2O3)c1 [Example 818, 4-(5-((5S)-2′-amino-3-(3,6-dihydro-2H-pyran-4-yl)spiro[chromeno[2,3-c]pyridine-5,4′-[1,3]oxazol]-7-yl)-3-pyridinyl)-2-methyl-3-butyn-2-ol] | 0.152 | 0.0049 | – | – | – |
| CC(C)(O)C#Cc1cncc(-c2ccc3c(c2)[C@@]2(COC(N)=N2)c2cc(C4=CCCOC4)ncc2O3)c1 [Example 819, 4-(5-((5S)-2′-amino-3-(5,6-dihydro-2H-pyran-3-yl)spiro[chromeno[2,3-c]pyridine-5,4′-[1,3]oxazol]-7-yl)-3-pyridinyl)-2-methyl-3-butyn-2-ol] | 0.238 | 0.0052 | – | – | – |
| COc1cc(F)c2c(c1)[C@]1(COC(N)=N1)c1cc(-c3cncc(C#CCO)c3)ccc1O2 [Example 820, 3-(5-((4S)-2-amino-5′-fluoro-7′-methoxyspiro[1,3-oxazole-4,9′-xanthen]-2′-yl)-3-pyridinyl)-2-propyn-1-ol] | 0.021 | 0.0011 | – | – | – |
| COc1cc(F)c2c(c1)[C@]1(COC(N)=N1)c1cc(-c3cncc(C#CC4(C)COC4)c3)ccc1O2 [Example 821, (4S)-4′-fluoro-2′-methoxy-7′-(5-((3-methyl-3-oxetanyl)ethynyl)-3-pyridinyl)spiro[1,3-oxazole-4,9′-xanthen]-2-amine] | 2.9 | 0.0514 | – | – | – |
| COc1cc(F)c2c(c1)[C@]1(COC(N)=N1)c1cc(-c3cncc(C#CC(C)(C)O)c3)ccc1O2 [Example 822, 4-(5-((4S)-2-amino-5′-fluoro-7′-methoxyspiro[1,3-oxazole-4,9′-xanthen]-2′-yl)-3-pyridinyl)-2-methyl-3-butyn-2-ol] | 3 | 0.0933 | – | – | – |
| COc1nc(C2=CCOCC2)cc2c1Oc1ccc(-c3cccnc3F)cc1[C@@]21COC(N)=N1 [Example 832, (5S)-3-(3,6-dihydro-2H-pyran-4-yl)-7-(2-fluoro-3-pyridinyl)-1-methoxyspiro[chromeno[2,3-c]pyridine-5,4′-[1,3]oxazol]-2′-amine] | – | – | – | 0.032 | 0.0007 |
